Where “and” joins values, the source holds several entries; their conditions need not be identical. Identical values can stand only once. Positions of bridges follow the written chain, without caps; N, C: chain ends. Residues, ends and D or L forms follow the SMILES beside them.
Key:
cJun [1] = biological target: T1, cJun (Homo sapiens, UniProt P05412); assay: Isothermal titration calorimetry (ITC) with cJun; assay type: binding; conditions: 25 °C, average of two experiments ± one SD
T1 construct: The same 60 amino acid cJun construct, encompassing the entire bZIP domain, was used for all experiments
From the text: A selection of peptides from this work were investigated by isothermal titration calorimetry (ITC) to quantify the thermodynamic parameters of their interaction with target cJun (Figure 4 and S6; Table 2). The determined equilibrium binding constant (KD) values follow from the CD data above and can be rationalized in terms of the truncation or lactamization they represent. […] All interactions investigated were dominated by the enthalpic component, with a smaller unfavorable entropic contribution, other than for HW8/cJun, which is the weakest interaction. The unfavorable entropic component was largest for the HW30/cJun interaction and smallest for HW23/cJun. This indicates the introduction of lactams produces a more unfavorable entropic component, perhaps a surprising result as helix-inducing lactamization is typically considered to increase affinity through entropic pre-organization. However, the larger increase in the favorable enthalpic component produces an increase in binding affinity due to lactamization. This is likely to be caused by a combination of enhanced intermolecular contacts and ordering that are opposed by unfavorable desolvation effects.
Two-μL injections of antagonist peptide at 25–200 μM were injected into the cell containing cJun at 2.5–20 μM at 25°C. Microcal Control and Analysis software were used to record and analyze the heat change upon addition and fit the data to a one-site binding model to extract the enthalpy change of binding (ΔH) and the KD, from which the free energy change of binding (ΔG) and the entropy change of binding (ΔS) were calculated.[40] Control experiments involved the injection of the antagonist peptide sample into the cell containing ITC buffer alone to determine the heat of dilution, which was subtracted. Thermodynamic parameters are presented as an average of two independent experiments with errors given as one SD.

cJun [2] = biological target: T1, cJun; assay: CD thermal denaturation of peptide-cJun heterodimers (Tm); assay type: binding; conditions: for Tm of peptide-cJun heterodimer: CD ellipticity at 222 nm, 1-90 °C, peptide (5 μM)/cJun (5 μM), 20 mM potassium phosphate, 150 mM potassium fluoride, 2 mM TCEP pH 7.4, two-state fit, duplicate experiments, ± one SD
Protocol: (§1) The precise nature of the interaction between the cJun DBD and the rationally designed acidic domain of HW1 is unknown. HW1 was, therefore, iteratively truncated from the N terminus (HW2–6) to investigate the effect on cJun binding and cJun/TRE DNA antagonism (Table 1). Peptide fraction helicity (fH) was determined by quantifying the circular dichroism (CD) signal at 222 nm of peptide-only samples (Figure S1). Thermal denaturation experiments were then used to determine the melting temperature (Tm) of peptide-cJun heterodimers, which serves as an approximate measure of target engagement. CD was also used to investigate the functional activity of peptides in antagonizing the cJun/TRE DNA interaction. […] This provides a clear and direct measurement of the proportion of DNA bound to cJun. As antagonist peptide concentration was increased, the peak shifted to overlay with that of free TRE-DNA (Figure S4). For each peptide, the data were fit to a Hill equation to determine half-maximal inhibitory concentration (IC50) values, specific to these assay conditions, providing a clear comparative measure of antagonism. The same 60 amino acid cJun construct, encompassing the entire bZIP domain, was used for all experiments regardless of antagonist peptide length.
Figure 2 Iterative N-terminal truncation of HingeW reduces cJun binding and antagonism (A) Thermal denaturation profiles for iteratively truncated peptide (5 μM)/cJun (5 μM) heterodimer samples. (B) CD antagonism data produced by monitoring the shift in a DNA specific peak to provide a direct readout of cJun-DNA binding. Peptides are added at the indicated concentrations to a pre-incubated mixture of cJun (20 μM) and TRE DNA (5 μM). Data points were averaged from triplicate experiments, and error bars indicate one SD. The data were fitted to a Hill equation to determine IC50 values. Some higher peptide concentration data points for HW6 and HW9 are not shown in this plot for clarity.

[3] = Peptide fraction helicity by CD at 222 nm, peptide-only samples; assay type: physicochemical; conditions: CD signal at 222 nm of peptide-only samples; pH 7.4 phosphate/KF/TCEP buffer; duplicate experiments
Protocol: as §1

Stability in human serum = conditions: human serum (Merck), 75 μL of 600 μM peptide stock added to 1425 μL serum, 37 °C, 3-day endpoint; acetonitrile:water precipitation; LC-MS, sum of two largest charge-state peaks; average of three repeats
TRE DNA = assay: CD of TRE DNA with antagonist peptide alone (Figure S3); assay type: binding; conditions: TRE DNA (5 μM) + HingeW (50 μM), CD 260-320 nm
Protocol: as §1, with “length. […]” for “length.”
wavelength range, so the CD signal observed occurs due to the DNA structure, which is not perturbed upon addition of HingeW. […]

cJun/TRE DNA interaction = biological target: T2, cJun/TRE DNA interaction (Homo sapiens, UniProt P05412); assay: CD antagonism of the cJun/TRE DNA interaction; assay type: biochemical
T2 construct: The same 60 amino acid cJun construct, encompassing the entire bZIP domain, was used for all experiments
Protocol: as §1, with “For each peptide, the data were fit to a Hill equation to determine half-maximal inhibitory concentration (IC50) values, specific to these assay conditions, providing a clear comparative measure of antagonism. The same 60 amino acid cJun construct, encompassing the entire bZIP domain, was used for all experiments regardless of antagonist peptide length.” left out
Figure 2 Iterative N-terminal truncation of HingeW reduces cJun binding and antagonism (A) Thermal denaturation profiles for iteratively truncated peptide (5 μM)/cJun (5 μM) heterodimer samples. (B) CD antagonism data produced by monitoring the shift in a DNA specific peak to provide a direct readout of cJun-DNA binding. […]

[4] = biological target: cJun (60 amino acid construct encompassing the entire bZIP domain) (UniProt P05412)
[5] = CD thermal denaturation; peptide alone (no cJun); thermal denaturation curves compared as a sign of homodimerization; conditions: other: CD thermal denaturation
[6] = biological target: T3, cJun (60 amino acid construct encompassing the entire bZIP domain) (UniProt P05412 252-315); assay: cell-based or functional assay
[7] = biological target: T3, cJun (60 amino acid construct …); assay: CD thermal denaturation; peptide (5 μM) with cJun (5 μM); ellipticity at 222 nm, 1°C to 90°C; 20 mM potassium phosphate, 150 mM potassium fluoride, 2 mM TCEP, pH 7.4; two-state fit gives the Tm of the peptide-cJun heterodimer; duplicate experiments; conditions: both partners purified
[8] = peptide 25-200 μM injected into cJun 2.5-20 μM, pH 7.4, one-site model

T1 sequence (P05412 252-315 limits assumed): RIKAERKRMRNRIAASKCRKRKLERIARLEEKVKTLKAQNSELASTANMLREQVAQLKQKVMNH
T2 sequence (P05412 252-315 limits assumed): as above
T3 sequence (P05412 252-315): as the sequence (P05412 252-315 limits assumed) above
cJun (60 amino acid construct encompassing the entire bZIP domain) (UniProt P05412), sequence (P05412 252-315): as the sequence (P05412 252-315 limits assumed) above

Molecule: Ac-EAEELVVEEDVLEEEIEQLEERNYALRKEIEDLQKQ-NH2 [HW8]
- ΔH (cJun [1]; pH 7.4, one-site model): -5.989 ± 0.813 kcal/mol
- Stoichiometry, n (cJun [1]; [8]): 0.95 ± 0.09
- Tm of peptide-cJun heterodimer (cJun [2]): 57.1 ± 0.9 °C
- fH, peptide fraction helicity [3]: 37.3%
- peptide remaining in human serum, peak intensity relative to starting value (Stability in human serum): fully degraded

Molecule: Ac-EAEELVVEEDVLEEEIEQLEERNYALRKEIEDLQKQLEKL-NH2 [HW4]
- ΔH (cJun [1]; pH 7.4, one-site model): -45.399 ± 1.93 kcal/mol
- Stoichiometry, n (cJun [1]; [8]): 0.91 ± 0.04
- Tm of peptide-cJun heterodimer (cJun [2]): 64.1 ± 1.5 °C
- fH, peptide fraction helicity [3]: 45.5%

Molecule: CC[C@H](C)[C@H](NC(=O)[C@H](CCC(=O)O)NC(=O)[C@H](CCCCN)NC(=O)[C@H](CCCNC(=N)N)NC(=O)[C@H](CC(C)C)NC(=O)[C@H](C)NC(=O)[C@H](Cc1ccc(O)cc1)NC(=O)[C@H](CC(N)=O)NC(=O)[C@H](CCCNC(=N)N)NC(=O)[C@H](CCC(=O)O)NC(=O)[C@H](CCC(=O)O)NC(=O)[C@H](CC(C)C)NC(=O)[C@H](CCC(N)=O)NC(=O)[C@H](CCC(=O)O)NC(=O)[C@@H](NC(=O)[C@H](CCC(=O)O)NC(=O)[C@H](CCC(=O)O)NC(=O)[C@H](CCC(=O)O)NC(=O)[C@H](CC(C)C)NC(=O)[C@@H](NC(=O)[C@H](CC(=O)O)NC(=O)[C@H](CCC(=O)O)NC(=O)[C@H](CCC(=O)O)NC(=O)[C@@H](NC(=O)[C@@H](NC(=O)[C@H](CC(C)C)NC(=O)[C@H](CCC(=O)O)NC(=O)[C@H](CCC(=O)O)NC(=O)[C@H](C)NC(=O)[C@H](CCC(=O)O)NC(C)=O)C(C)C)C(C)C)C(C)C)[C@@H](C)CC)C(=O)N[C@H]1CCCCNC(=O)C[C@@H](C(=O)N[C@@H](CCC(N)=O)C(N)=O)NC(=O)[C@H](CCC(N)=O)NC(=O)[C@H](CC(C)C)NC(=O)[C@H](CC(=O)O)NC1=O [HW29] (Ac-EAEELVVEEDVLEEEIEQLEERNYALRKEIKDLQDQ-NH2; lactam 31-35)
- Kd (cJun [1]; [8]): 0.0866 ± 0.017 µM
- ΔTm of cJun heterodimer due to lactamization (cJun [2]; cyclized versus its linear (non-lactamized) counterpart): ~9 °C
- ΔTm of cJun heterodimer relative to parent sequence HW8 (cJun [2]; versus HW8, before the substitutions for K and D residues): ~8 °C
- peptide remaining in human serum, peak intensity relative to starting value (Stability in human serum): 31%

Molecule: CC[C@H](C)[C@H](NC(=O)[C@H](CCC(=O)O)NC(=O)[C@H](CCCCN)NC(=O)[C@H](CCCNC(=N)N)NC(=O)[C@H](CC(C)C)NC(=O)[C@H](C)NC(=O)[C@H](Cc1ccc(O)cc1)NC(=O)[C@H](CC(N)=O)NC(=O)[C@H](CCCNC(=N)N)NC(=O)[C@H](CCC(=O)O)NC(=O)[C@H](CCC(=O)O)NC(=O)[C@H](CC(C)C)NC(=O)[C@H](CCC(N)=O)NC(=O)[C@H](CCC(=O)O)NC(=O)[C@@H](NC(=O)[C@H](CCC(=O)O)NC(=O)[C@@H]1CC(=O)NCCCC[C@H](NC(=O)[C@H](CCC(=O)O)NC(=O)[C@H](CCC(=O)O)NC(=O)[C@@H](NC(=O)[C@@H](NC(=O)[C@H](CC(C)C)NC(=O)[C@H](CCC(=O)O)NC(=O)[C@H](CCC(=O)O)NC(=O)[C@H](C)NC(=O)[C@H](CCC(=O)O)NC(C)=O)C(C)C)C(C)C)C(=O)N[C@@H](C(C)C)C(=O)N[C@@H](CC(C)C)C(=O)N[C@@H](CCC(=O)O)C(=O)N1)[C@@H](C)CC)C(=O)N[C@H]1CCCCNC(=O)C[C@@H](C(=O)N[C@@H](CCC(N)=O)C(N)=O)NC(=O)[C@H](CCC(N)=O)NC(=O)[C@H](CC(C)C)NC(=O)[C@H](CC(=O)O)NC1=O [HW30] (Ac-EAEELVVEEKVLEDEIEQLEERNYALRKEIKDLQDQ-NH2; lactam 10-14, 31-35)
- peptide remaining in human serum, peak intensity relative to starting value (Stability in human serum): 56%

Molecule: MASLEQRAEELARENEELEKEAEELVVEEDVLEEEIEQLEERNYALRKEIEDLQKQLEKLGAPHHHHHH [HW1]
- ΔG (cJun [1]; pH 7.4, calculated from KD): -13.45 ± 0.179 kcal/mol
- -TΔS (cJun [1]; pH 7.4, calculated from ΔH and KD): 17.55 ± 0.884 kcal/mol
- interaction with TRE DNA (in words) (TRE DNA): does not interact
- fH, peptide fraction helicity [3]: ~27% and 27.2%
- peptide remaining in human serum, peak intensity relative to starting value (Stability in human serum): fully degraded

Molecule: MASLEQRAEELARENEELEKEAEELVVE-NH2 [HW7, acidic domain of HW1 alone (CΔ35)]
- binding to cJun (in words) (cJun [2]; acidic domain alone): not to bind
- antagonism of the ability of cJun to bind TRE DNA (in words) (cJun/TRE DNA interaction; CD antagonism assay): did not

Molecule: Ac-EAEELVVEEDVLEEEIEQLEEKNKALKDEIEDLY-NH2 [HW14]
- fH, peptide fraction helicity [3]: 30.1%
- IC50 (cJun/TRE DNA interaction; peptide added to pre-incubated cJun (20 μM) and TRE DNA (5 μM), shift of DNA CD peak at ~281 nm, 30 min equilibration, pH 7.4, Hill fit, triplicate experiments, ± one SD, read-out: IC50 CD (antagonism of cJun/TRE DNA binding)): 1560 µM

Molecule: Ac-EAEELVVEEDVLEEEIEQLEEKNKALKDEIEDLY-NH2 [HW14]
- IC50 CD: peptide added to pre-incubated cJun (20 μM) and TRE DNA (5 μM); blocks cJun/TRE DNA binding [4]: 1560 µM

B1: HW5 (peptide)
peptide: Ac-LVVEEDVLEEEIEQLEERNYALRKEIEDLQKQLEKL-NH2
notes: truncation NΔ24 CΔ3 of HW1; source: synthetic peptide (Fmoc SPPS, RP-HPLC purified)
- Tm of the peptide alone [5]: HW5 displayed a Tm of 41 °C
- IC50 CD: peptide added to pre-incubated cJun (20 μM) and TRE DNA (5 μM); blocks cJun/TRE DNA binding [6]: 78.2 µM
- Tm of the peptide-cJun heterodimer [7]: 62.8 °C

Source: PMC9582194, “The effect of helix-inducing constraints and downsizing upon a transcription block survival-derived functional cJun antagonist” (Cell Reports. Physical Science, 2022)
